Assays:
Format in all cases: cell-based, human
CtOs or sPOs = assay: Wnt signaling manipulation in brain organoids (size, immunostaining, single cell RNA-Seq)
Method: Immunofluorescence staining. After being cultured in vitro for the required amount of time, CtOs and sPOs were fixed with 4% paraformaldehyde for 4-8 h at 4° C. and cryoprotected in 30% sucrose for 12 h. Organoids were then embedded in TissueTek (Leica Microsystems) and sectioned on a Leica VT1000S cryostat to produce 20 μm sections. For staining, slides were air dried for 10 min, permeabilized in […] for 2 min, and blocked with […] for 1 h at 25° C., followed by incubation with primary antibodies in the same solutions, for 16 h at 4° C. […] After further washes in 1×PBS, slides were counterstained with DAPI solution (1 μg/mL) for 45 min and mounted with ProLong Gold. All images were taken using a Zeiss fluorescence microscope equipped with Apotome (Axio Observer Apotome, Zeiss). For projections of z series stacked images of DCX-stained organoids, the maximum intensity feature of ZEN software (Zeiss) was used, after collecting 10 optical slices per section. For p16^INK4a staining, antigen retrieval was performed by incubating the slides at 60° C. for 10 min in 1× Universal HIER antigen retrieval reagent (Abcam; ab208572), followed by regular immunostaining. For counting SOX2+ cells after p16^INK4a co-staining (FIG. 15J), raw unprocessed images were used, and defined strongly stained cells as those which had average pixel intensity between the upper third quartile and the maximum pixel intensity in each image. Remaining SOX2+ cells were considered weakly stained.
For quantification of cell types in organoid sections, 4 random 100×100 μm regions of interest (ROI) were sampled across each imaged section. The mean number of labeled cells per sample was calculated by first averaging the number of labeled cells in each ROI to produce a mean value of labeled cells per section, and then averaging these mean values across all sections for each subject. […] The average percentage of pixels according to these rules was computed over four 100×100 μm ROIs per section and 6 sections per subject.
Organoid single cell RNA sequencing analysis. CtOs and sPOs were dissociated to produce a single cell suspension via a combination of mechanical dissociation with forceps and enzymatic digestion with Accutase for 10 min. For each library, a total of 15 organoids were dissociated and the resulting cells were pooled and subsequently filtered to isolate single cells for RNA sequencing analysis on the same day. Dissociated cells were pelleted (3 min, 100× g, 4° C.) and resuspended in 10 mL of Neurobasal medium. […] Single cell RNA-seq libraries were prepared using the Chromium Single Cell 3′ v3 Library kit (10× Genomics) according to the manufacturer's protocol. Approximately 20,000 cells were loaded per sample on the Chromium chip. All steps, including GEM (Gel beads in emulsion) preparation, reverse transcription, PCR amplification, and Illumina library construction were carried out on a T100 thermal cycler (Bio-Rad). cDNA extracted from GEMs was cleaned up using MyOne Silane Beads (Thermo Fisher Scientific), PCR-amplified for a total of 10 cycles, and then purified using SPRIselect Reagent Kit (B23317, Beckman Coulter). Next, the cDNA pool was enzymatically fragmented for each library and a double size selection was performed using the SPRIselect Reagent Kit. Finally, Illumina adapters were ligated to prepare libraries for sequencing, followed by another round of double size selection with the SPRIselect Reagent Kit. […] Illumina libraries were quantified using Qubit dsDNA HS Assay Kit (Thermo Fisher Scientific) and size quality control was performed on a High Sensitivity D1000 tapestation (Agilent).

NPCs [1] = assay: p16INK4a+ (senescent) cells in NPCs treated with CHIR99021; details: PTHS NPCs
Method: For immunofluorescence labeling of NPCs, these cells were seeded at a density of 50,000 cells per well of a LabTek II 8-well chambered slide. When cells reached 50% confluency, they were fixed and processed for immunostaining in the same manner as described for iPSC colonies, with the following primary antibodies: rabbit anti-TCF4 (Abcam; ab217668; 1:1000); and chicken anti-vimentin (VIM) (Abcam; ab22651; 1:2000). NPCs were also stained to detect senescence associated P-galactosidase (SA-P-gal), using the CellEvent™ Senescence Green Detection Kit (Thermo Fisher Scientific; C10850) after antigen retrieval as described above. The same method described above for counting weakly and strongly stained SOX2+ cells after p16^INK4a co-staining was applied to NPCs.
(§1) Wnt signaling manipulation. For manipulating the Wnt/β-catenin signaling pathway in NPCs, 200,000 cells were seeded on a 6-well plate, followed by treatment with specific agonist CHIR99021 (1 μM) for 4 days. Controls were treated with DMSO (CHIR diluent) at the same concentration and for the same duration. […] In all cases, treated cells were assayed to measure activity of the Wnt pathway via transfection with the TOP-Flash plasmids described herein. For all experiments, 3 biological replicates were used per subject line, and similar results were obtained in at least 3 independent experiments.

NPCs [2] = assay: NPC proliferation (live cell count, EdU) after Wnt signaling manipulation
Method: Proliferation and apoptosis assays.
as §1, with “herein.” for “herein. For all experiments, 3 biological replicates were used per subject line, and similar results were obtained in at least 3 independent experiments.”

For `Cc1c[nH]c(-c2cnc(NCCNc3ccc(C#N)cn3)nc2-c2ccc(Cl)cc2Cl)n1` [CHIR99021], the “percentage of subpallial-type neural progenitors” value (CtOs or sPOs; CHIR99021-treated CtOs (FIG. 16H)) was “increased percentage”, the “progenitor population (single cell RNA-Seq)” value (CtOs or sPOs; CHIR99021-treated PTHS CtOs and sPOs (FIGS. 16G-H)) was “increase in the progenitor population” and the neural rosettes (CtOs or sPOs; PTHS CtOs, CHIR99021) was “reappearance of conspicuous neural rosettes”. For the same compound, the “NPC content (SOX2+ cells)” value (CtOs or sPOs; PTHS CtOs, CHIR99021 1 μM (FIG. 9K)) was “significant increase”, the organoid size (CtOs or sPOs; PTHS CtOs, CHIR99021 1 μM (FIG. 16F)) was “significant increase in organoid size” and the “TCF4 levels in neural progenitors of the organoid's 3D structure” value (CtOs or sPOs; PTHS sPOs, CHIR (FIG. 16J)) was “do not exhibit an increase in TCF4 levels”. The “expression of subpallial markers (GAD1, GAD2)” value (CtOs or sPOs; parent and PTHS CHIR99021-treated organoids (FIG. 16I)) was “higher”, the progenitor content (CtOs or sPOs; parent organoids, CHIR (FIG. 9K)) was “does not lead to an increase” and the organoid size (CtOs or sPOs; parent organoids, CHIR (FIG. 16F)) was “does not lead to an increase”. The “percentage of p16INK4a senescent cells” value (NPCs [1]) was “decreased the percentage”, the proliferation rates (NPCs [2]; PTHS NPCs, CHIR99021 1 μM, 4 days (FIGS. 9G-H)) was “rescued the proliferation rates” and the proliferation (NPCs [2]; parent NPCs in 2D culture, CHIR (FIGS. 9G-H)) was “does not lead to increased proliferation”.
